Experimental data reported in patent US9487494B2, “Cyclic hydrocarbon compounds for the treatment of diseases” (LEO PHARMA A/S, priority 2007, dated 2016).

Tests used:
[1] = test system: normal male Sprague Dawley rats; test: In vivo test in normal rats (serum PTH and calcium); set-up: species or system rat; settings: for PTH suppression / Suppression of Ca^2+: 1 mg/kg p.o., single dose, 2 hours after dosing, compared to vehicle-treated animals; for ED50: Rattus norvegicus, 2 h, oral single doses, blood two hours thereafter, normal rats, read-out: ED50 with respect to PTH suppression
Protocol: Various compounds were administered to normal male Sprague Dawley rats in order to examine the pharmacological effect on serum levels of total calcium and parathyroid hormone (PTH). The experiments were performed by orally administering a single dose of the respective compounds as compared to vehicle-treated animals or animals treated with the competitor compound Cinacalcet.
As a standard, a group of six animals were treated orally with 1 mg/kg of compound as a 1% methylcellulose suspension and two hours thereafter, blood was obtained by retro-orbital bleeding under anaesthesia and the serum calcium and PTH levels were measured.
In some instances, rats were treated orally with various doses of a given compound in 1% methylcellulose (six rats/dose) and blood was obtained by retro-orbital bleeding two hours thereafter. Using the software GraphPad Prism® 5, ED50 values for Cinacalcet, Compound 1056, Compound 1186, and Compound 1190 with respect to PTH suppression were calculated to be 0.9 mg/kg, 0.1 mg/kg, 0.04 mg/kg, and 0.002 mg/kg, respectively.
For some compounds, rats were bled at several time-points after oral administration (six rats/time point), and suppression of serum PTH levels was observed over time.

[2] = target: recombinant human P450 2D6 (Homo sapiens (Human), UniProt P10635); test: Screening for P450 2D6 inhibition (fluorescent AMMC substrate); type: in vitro ADME; settings: recombinant human P450 CYP2D6, AMMC substrate, 30 min
recombinant human P450 2D6, sequence (P10635 whole entry): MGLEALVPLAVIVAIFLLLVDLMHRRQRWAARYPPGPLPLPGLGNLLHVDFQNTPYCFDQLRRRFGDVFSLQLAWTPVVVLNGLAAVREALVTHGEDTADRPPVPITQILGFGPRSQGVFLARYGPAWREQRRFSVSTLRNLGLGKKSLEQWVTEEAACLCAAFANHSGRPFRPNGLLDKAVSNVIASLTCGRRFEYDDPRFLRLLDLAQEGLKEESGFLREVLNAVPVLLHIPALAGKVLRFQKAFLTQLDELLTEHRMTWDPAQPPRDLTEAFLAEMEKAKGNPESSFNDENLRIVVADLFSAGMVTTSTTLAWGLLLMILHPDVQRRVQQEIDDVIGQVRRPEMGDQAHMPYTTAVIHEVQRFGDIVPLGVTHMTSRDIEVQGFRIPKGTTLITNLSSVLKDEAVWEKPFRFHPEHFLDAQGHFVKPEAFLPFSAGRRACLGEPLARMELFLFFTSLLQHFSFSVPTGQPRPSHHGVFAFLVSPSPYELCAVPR
Protocol: The assay rapidly screen for potential inhibitors of human P450 2D6 catalytic activity, by using recombinant human P450 2D6. The IC50 determination is performed in duplicate at eight concentrations.
Incubations were conducted in 96 well microtiter plates based on a method described by BD Biosciences. To the first well in each row, a NADPH regenerating system and test compound was added. In the second well and all remaining wells, NADPH regenerating system and acetonitrile (final concentration of 2%) was added. The final assay concentration of the NADPH regenerating system was 8.2 μM NADP^+, 0.41 mM glucose-6-phosphate, 0.41 mM magnesium chloride hexahydrate and 0.4 U/ml glucose-6-phosphate dehydrogenase and 0.01 mg/mL control insect cell membrane protein. The test compound solution was serially diluted 1:3 through the eighth wells.
The final concentration of the test compounds were in the range 100 μM to 45.7 nM in the eight rows. Wells 9 and 10 contained no test compound (only NADPH regenerating system and enzyme/substrate mix) and wells 11 and 12 were used as controls for background fluorescence (enzyme and substrate were added after the reaction was terminated). The plate was then pre-incubated at 37° C. for 10 min, and the reaction was initiated by the addition of pre-warmed enzyme/substrate mix. The assay concentration of the enzyme/substrate mix was 100 mM potassium phosphate, pH 7.4, 1.5 pmol recombinant human P450 CYP2D6 and 1.5 μM of the fluorescent substrate 3-[2-(N,N diethyl-N-methylamino)ethyl]-7-methoxy-4-methylcounnarin (AMMC). The assay was conducted in duplicate in a final volume of 200 μL per well. Reactions were terminated after 30 min by addition of a 4:1, acetonitrile:0.5 M Tris base solution. Quinidine was used as positive control, 0.5 μM as highest concentration. Fluorescence per well was measured using a fluorescence plate reader (excitation: 390 nm, emission: 460 nm). The IC50 values were calculated.

[3] = test system: rat 5/6 nephrectomy model; test: In vivo test using the 5/6 nephrectomy model in rats (secondary hyperparathyroidism); settings: 336 h, oral once daily for two weeks, 5/6 nephrectomized rats, read-out: ED50, PTH lowering effect
Source text: The lowering effect of different compounds on serum PTH was examined in vivo in the rat 5/6 nephrectomy model which is a widely accepted animal model of secondary hyperparathyroidism.
Two-third of the rats' (Sprague Dawley, at least 8 weeks old) left kidney was surgically removed followed by removal of the right kidney one week later.
After disease initiation, blood was obtained by retro-orbital bleeding and urine was collected using metabolic cages. Serum PTH, calcium, phosphorus, albumin, creatinine, and BUN as well as urinary creatinine and albumin were measured. Rats were then stratified into different treatment groups (9-12 rats/group) based on the results obtained. One group of normal rats without surgery served as control (“control”) and one group of nephrectomized rats treated with vehicle (1% Methylcellulose) was used as another control (“5/6 NEPX”). All other groups were treated orally with test compound at various doses once daily for two weeks and the above mentioned parameters were monitored weekly.

C[C@@H](NC1CC[C@H](c2ccc(C(=O)O)cc2)C1)c1cccc2ccccc12 (stereo partly drawn) [Compound 1338, 4-[3-((R)-1-Naphthalen-1-yl-ethylamino)-cyclopentyl]-benzoic acid]
PTH suppression [1]: 85% | Suppression of Ca^2+ [1]: 29% | IC50 [2]: 100 µM

C[C@@H](N[C@H]1CCC[C@H](c2ccc(C(=O)NCCC(=O)O)cc2)C1)c1cccc2ccccc12.Cl [Compound 1136, 3-{4-[(1S,3S)-3-((R)-1-Naphthalen-1-yl-ethylamino)-cyclohexyl]-benzoylamino}-propionic acid hydrochloride]
PTH suppression [1]: 61% | Suppression of Ca^2+ [1]: 7% | IC50 [2]: 10 µM

C[C@@H](N[C@H]1CCC[C@H](c2ccc(C(=O)N3CC(C(=O)O)C3)cc2)C1)c1cccc2ccccc12 [Compound 1142, 1-{4-[(1S,3S)-3-((R)-1-Naphthalen-1-yl-ethylamino)-cyclohexyl]-benzoyl}-azetidine-3-carboxylic acid]
IC50 [2]: 25 µM

C[C@@H](N[C@H]1CCC[C@H](c2ccc(C(=O)NCC(=O)O)cc2)C1)c1cccc2ccccc12 [Compound 1115, {4-[(1S,3S)-3-((R)-1-Naphthalen-1-yl-ethylamino)-cyclohexyl]-benzoylamino}-acetic acid]
PTH suppression [1]: 50% | Suppression of Ca^2+ [1]: 3% | IC50 [2]: 13 µM

C[C@@H](N[C@H]1CCC[C@H](c2ccc(C(=O)N3CCC(C(=O)O)CC3)cc2)C1)c1cccc2ccccc12 [Compound 1146, 1-{4-[(1S,3S)-3-((R)-1-Naphthalen-1-yl-ethylamino)-cyclohexyl]-benzoyl}-piperidine-4-carboxylic acid]
PTH suppression [1]: 84% | Suppression of Ca^2+ [1]: 0% | IC50 [2]: 16 µM

C[C@@H](N[C@H]1CC[C@H](c2ccc(CCC(=O)O)cc2)C1)c1cccc2ccccc12.Cl [Compound 1190, 3-{4-[(1S,3S)-3-((R)-1-Naphthalen-1-yl-ethylamino)-cyclopentyl]-phenyl}-propionic acid hydrochloride]
PTH suppression [1]: 93% | Suppression of Ca^2+ [1]: 18.5% | ED50 [1]: 0.002 mg/kg | IC50 [2]: 79 µM | ED50 [3]: ~0.01 mg/kg

C[C@@H](NC1CCC(c2ccc(OCC(=O)O)cc2)C1)c1cccc2ccccc12 (stereo partly drawn) [Compound 1188, {4-[3-((R)-1-Naphthalen-1-yl-ethylamino)-cyclopentyl]-phenoxy}-acetic acid]
PTH suppression [1]: 97% | Suppression of Ca^2+ [1]: 12%

C[C@@H](N[C@H]1CC[C@@H](c2ccc(OCC(=O)O)cc2)C1)c1cccc2ccccc12 [Compound 1186, {4-[(1R,3S)-3-((R)-1-Naphthalen-1-yl-ethylamino)-cyclopentyl]-phenoxy}-acetic acid]
PTH suppression [1]: 98% | Suppression of Ca^2+ [1]: 6% | ED50 [1]: 0.04 mg/kg | IC50 [2]: 50 µM | ED50 [3]: ~0.3 mg/kg

C[C@@H](NC1CCCC(c2ccc(C(=O)O)cc2)C1)c1cccc2ccccc12 (stereo partly drawn) [Compound 1056, 4-[3-((R)-1-naphthalen-1-yl-ethylamino)-cyclohexyl]-benzoic acid]
PTH suppression [1]: 85% | Suppression of Ca^2+ [1]: 1% | ED50 [1]: 0.1 mg/kg | IC50 [2]: 10 µM | ED50 [3]: ~2 mg/kg

C[C@@H](NCCCc1cccc(C(F)(F)F)c1)c1cccc2ccccc12 [Cinacalcet, reference compound]
PTH suppression [1]: 48% | Suppression of Ca^2+ [1]: 5% | ED50 [1]: 0.9 mg/kg | IC50 [2]: 0.05 µM | ED50 [3]: ~20 mg/kg
